Results: PMC8306933 (Molecules, 2021)
Like-named read-outs stand apart in the source and are kept apart here.

Legend:
[1] = molecular target: T1, α-amylase from porcine pancreas (Sus scrofa, UniProt P00690); test: biochemical; assay type: biochemical
T1 construct: purchased Sigma-Aldrich (St. Louis, MO, USA); host or cells: porcine pancreas
T1 sequence (P00690 16-511): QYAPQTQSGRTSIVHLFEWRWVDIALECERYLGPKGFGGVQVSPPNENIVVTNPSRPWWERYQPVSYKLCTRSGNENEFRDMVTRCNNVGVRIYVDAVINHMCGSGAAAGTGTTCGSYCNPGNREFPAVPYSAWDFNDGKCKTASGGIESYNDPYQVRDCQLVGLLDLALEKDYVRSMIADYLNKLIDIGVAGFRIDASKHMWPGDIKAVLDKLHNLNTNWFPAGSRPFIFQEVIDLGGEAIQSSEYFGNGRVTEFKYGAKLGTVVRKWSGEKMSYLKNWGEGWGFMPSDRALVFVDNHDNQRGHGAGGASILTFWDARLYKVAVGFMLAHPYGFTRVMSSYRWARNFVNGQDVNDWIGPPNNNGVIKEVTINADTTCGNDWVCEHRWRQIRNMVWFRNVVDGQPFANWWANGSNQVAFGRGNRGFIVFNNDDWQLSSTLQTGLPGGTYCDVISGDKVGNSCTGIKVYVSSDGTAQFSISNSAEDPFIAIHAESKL
From the text: (§1) Trizma hydrochloride (Tris-HCl) and bovine serum albumin (BSA) were obtained from Sigma–Aldrich (Steinheim, Germany). Deionized water was produced using a Milli-Q water purification system (Millipore, Bedford, MA, USA). Dulbecco’s Modified Eagle Medium (DMEM) was collected from Gibco (Japan), and fetal bovine serum (FBS) was also collected from Gibco (Waltham, MA, USA). Insulin and penicillin G/streptomycin were collected from Wako (Fujifilm Wako Pure Chemical Corporation, Osaka, Japan), the MTS kit was collected from Promega (Madison, WI, USA), and poly-2-hydroxyethyl methacrylate was collected from Sigma-Aldrich (Taufkirchen, Germany).
α-Amylase inhibitory activity was determined following the starch-iodine method with some modifications. A 1% starch solution was prepared by 1 g of starch in 10 mL of distilled water following gentle boiling and cooling into 100 mL. A reaction mixture, 25 μL sample (0–1 mM) and 50 μL α-amylase (5 U/mL) in phosphate buffer, was incubated at 37 °C for 10 min. Afterwards, the starch (100 μL, 1% w/v) solution was added to the mixture and incubated again at 37 °C for 10 min. […] After adding the iodine/iodide solution, based on the colour change, the absorbance was monitored at 630 nm for 10 min. […] The percentage of inhibition was calculated and results were expressed as IC50 (µM).

[2] = molecular target: T2, Acetylcholinesterase from electric eel (Electrophorus electricus, UniProt O42275); test: biochemical; assay type: biochemical
T2 construct: purchased Sigma-Aldrich (St. Louis, MO, USA) type VI-s; host or cells: electric eel
T2 sequence (O42275 24-633): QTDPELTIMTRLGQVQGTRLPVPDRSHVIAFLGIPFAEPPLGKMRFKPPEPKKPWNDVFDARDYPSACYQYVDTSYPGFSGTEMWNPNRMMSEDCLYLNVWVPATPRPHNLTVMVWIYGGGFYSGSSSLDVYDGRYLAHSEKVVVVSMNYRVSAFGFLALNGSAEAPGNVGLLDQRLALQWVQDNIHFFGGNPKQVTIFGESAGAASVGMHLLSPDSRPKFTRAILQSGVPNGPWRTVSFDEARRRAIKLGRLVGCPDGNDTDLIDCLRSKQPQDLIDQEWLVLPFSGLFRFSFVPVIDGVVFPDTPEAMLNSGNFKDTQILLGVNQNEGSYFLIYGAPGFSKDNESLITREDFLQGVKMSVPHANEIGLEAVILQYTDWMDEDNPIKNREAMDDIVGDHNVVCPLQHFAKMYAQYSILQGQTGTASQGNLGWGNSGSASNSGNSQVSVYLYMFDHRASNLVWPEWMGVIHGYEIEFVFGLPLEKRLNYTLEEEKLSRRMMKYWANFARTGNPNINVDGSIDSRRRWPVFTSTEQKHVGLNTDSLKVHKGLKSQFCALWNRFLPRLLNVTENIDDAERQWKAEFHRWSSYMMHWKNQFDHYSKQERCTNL
From the text: as §1
(§2) The cholinesterase inhibitory (AChE/BChE) properties were ascertained based on Ellman’s method, as previously described. […] In the AChE inhibitory assay, 25 µL of sample solution (0–1 mM) along with 50 µL of buffer B (50 mM Tris-HCl, pH 8 containing 0.1% BSA), 125 µL of DTNB (3 mM), and 25 µL of 0.05 U/mL AChE were incubated at 37 °C for 10 min. After incubation, 25 µL of acetylthiocholine iodide (5 mM) as AChE substrate was incorporated to the solution. The BChE activity was determined following the same protocol using 25 µL of 5 mM S-butyrylthiocholine chloride as BChE substrate and 0.05 U/mL BChE as enzyme. […] The percentage of inhibition was calculated and the results were expressed as IC50 (µM).

[3] = molecular target: T3, butyrylcholinesterase from equine serum (Equus caballus, UniProt P81908); test: BChE inhibition (Ellman's method); assay type: biochemical
T3 construct: purchased Sigma-Aldrich (St. Louis, MO, USA); host or cells: equine serum
T3 sequence (P81908 whole entry): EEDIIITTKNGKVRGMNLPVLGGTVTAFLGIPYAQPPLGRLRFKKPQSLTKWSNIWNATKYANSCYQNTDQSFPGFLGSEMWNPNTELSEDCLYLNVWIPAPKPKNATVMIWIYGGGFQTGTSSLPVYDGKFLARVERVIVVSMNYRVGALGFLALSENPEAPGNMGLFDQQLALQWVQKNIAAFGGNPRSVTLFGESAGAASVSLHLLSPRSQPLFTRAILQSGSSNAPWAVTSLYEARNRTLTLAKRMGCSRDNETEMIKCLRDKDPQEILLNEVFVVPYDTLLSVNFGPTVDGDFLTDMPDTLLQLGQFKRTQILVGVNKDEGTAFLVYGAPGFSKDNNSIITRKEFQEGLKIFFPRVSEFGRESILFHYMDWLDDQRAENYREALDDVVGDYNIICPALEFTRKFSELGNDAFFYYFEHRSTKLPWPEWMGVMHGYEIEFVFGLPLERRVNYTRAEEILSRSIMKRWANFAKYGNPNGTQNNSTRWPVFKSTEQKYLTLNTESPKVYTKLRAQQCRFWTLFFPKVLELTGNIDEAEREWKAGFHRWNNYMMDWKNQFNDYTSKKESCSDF
From the text: as §1, §2

[4] = tested on: Hs578T cells; test: Cytotoxicity / cell viability (MTS assay), Hs578T; assay type: cell-based; conditions: for IC50: Homo sapiens, Hs-578T, TNBC cell line Hs578T, read-out: IC50 cytotoxic activity Hs578T; for reduction of the number of TNBC cells Hs578T: after three days of treatment at IC50
Experimental: (§3) The human TNBC cell lines Hs578T and MDA-MB-231 were obtained from the American Type Culture Collection and cultured in Dulbecco’s Modified Eagle Medium (DMEM) supplemented with fetal bovine serum (FBS) (10% v/v), insulin (Hs578T cell only), and penicillin G/streptomycin 1% (v/v) at 37 °C under 5% CO2. The absence of culture contamination by Mycoplasma species was confirmed before the experiments.
(§4) The activity of the selected compounds on breast cancer cell viability were determined employing the MTS assay. Briefly, 5 × 10^3 cells were seeded in each well of a 96-well plate for 24 h, and growth medium containing different compounds was added and incubated in different periods. A total of 20 µL of the MTS kit was added to each well, and the cells were incubated for 2 h. After incubation, the absorbance was measured at 490 nm with an enzyme-linked immunosorbent assay microplate reader (BioTek Instruments, USA). The absorbance value is directly proportional to the number of living cells.

[5] = tested on: MDA-MB-231 cells; test: Cytotoxicity / cell viability (MTS assay), MDA-MB-231; assay type: cell-based; conditions: for IC50: Homo sapiens, TNBC cell line MDA-MB-231, read-out: IC50 cytotoxic activity MDA-MB-231; for reduction of the number of TNBC cells MDA-MB-231: after three days of treatment at IC50
Experimental: as §3, §4

[6] = tested on: Hs578T cells; test: Transwell cell migration assay, Hs578T; assay type: cell-based, human; conditions: at IC50; vs DMSO control
Experimental: as §3
(§5) The effects of the selected compounds on breast cancer cell migration were evaluated in transwell chambers according to a published protocol. Briefly, the Hs578T and MDA-MB-231 cells were treated with the tested compounds for 24 h, trypsinized, and washed twice with serum-free medium. Approximately 3 × 10^4 pretreated cells, suspended in 100 μL of the serum-free medium, were seeded to the upper chamber. The lower chambers were filled with approximately 500 μL of DMEM medium with 10% FBS and incubated for 12 h. After incubation, the cells from the upper surface were wiped off with cotton swabs, while the migrated cells on the opposite side of the transwell were washed twice with PBS, fixed with 4% paraformaldehyde, and finally stained with crystal violet solution. After 2 washes with water (Milli Q), several microscopic fields were taken randomly, and the migrated cells were counted using ImageJ software.

[7] = tested on: MDA-MB-231 cells; test: Transwell cell migration assay, MDA-MB-231; assay type: cell-based, human; conditions: at IC50; vs DMSO control
Experimental: as §3, §5

[8] = tested on: Hs578T cells; test: Tumor-sphere formation assay, Hs578T; assay type: cell-based, human; conditions: in vitro tumor-sphere formation
Experimental: as §3
(§6) Three-dimensional or tumor-sphere culture is a recently introduced in vitro technique which maintains a physiological environment which closely resembles that of in vivo conditions. This technique has now been widely used for the screening of anticancer moieties. In vitro tumor-sphere formation assay was performed following a reported protocol. Briefly, approximately 3 × 10^3 cells were resuspended in a poly-2-hydroxyethyl methacrylate coated 6-well plate containing a sphere-forming medium with or without tested compounds and incubated for one week. The number of tumor spheres were counted, and the diameter of each tumor sphere was measured.

[9] = tested on: MDA-MB-231 cells; test: Tumor-sphere formation assay, MDA-MB-231; assay type: cell-based, human; conditions: in vitro tumor-sphere formation
Experimental: as §3, §6

[10] = mean ± SD (n = 3), mammalian α-amylase, read-out: IC50 α-Amylase
[11] = mean ± SD (n = 3), tested 0–1 mM, read-out: IC50 AChE
[12] = mean ± SD (n = 3), tested 0–1 mM, read-out: IC50 BChE
[13] = mean ± SD (n = 3), tested 0–1 mM
[14] = mean ± SD (n = 3), mammalian α-amylase

Compound | IC50 [1, 10] [µM] | IC50 [2, 11] [µM] | IC50 [3, 12] [µM] | IC50 AChE [2, 13] | IC50 [4] [µM] | reduction of the number of TNBC cells Hs578T [4] [%] | IC50 [5] [µM] | reduction of the number of TNBC cells MDA-MB-231 [5] [%] | inhibition of migration of Hs578T cell [6] [%] | inhibition of migration of MDA-MB-231 [7] [%] | tumor-sphere size and number, Hs578T [8] | tumor-sphere size and number, MDA-MB-231 [9] | IC50 α-Amylase [1, 14] | IC50 [1] [µM] | IC50 [2] [µM] | IC50 [3] [µM]
COc1cc(/C=C/C(=O)O[C@H]2[C@H](O[C@@H]3O[C@@H](C)[C@H](O)[C@@H](O)[C@H]3O[C@@H]3O[C@H](CO)[C@@H](O)[C@H](O)[C@H]3O)[C@@H](O)[C@H](OCCc3ccc(O)c(O)c3)O[C@@H]2CO)ccc1O [Compound 8, incanoside C] | 19.8 ± 0.5 | 178 ± 11.3 | > 1000 |  |  |  |  |  |  |  |  |  |  |  |  | 
COc1ccc(CCO[C@@H]2O[C@H](CO)[C@@H](OC(=O)/C=C/c3ccc(O)c(O)c3)[C@H](O[C@@H]3O[C@@H](C)[C@H](O)[C@@H](O)[C@H]3O)[C@H]2O)cc1O [Compound 6, jionoside D] | 3.4 ± 0.2 | > 1000 | > 1000 | no inhibitory activity |  |  |  |  |  |  |  |  |  |  |  | 
CC1OC(OC2C(O)C(OCCc3ccccc3)OC(CO)C2OC(=O)C=Cc2ccc(O)c(O)c2)C(O)C(O)C1O (stereo not drawn) [Compound 5, jionoside C] | 24.9 ± 0.4 | 160 ± 12.2 | > 1000 |  | 85.3 ± 2.4 | 42 | 96.5 ± 1.5 | 43 | 43 | 37 | reduced the cell size (Figure 5A,C) and the cell number significantly | reduced the cell size (Figure 5A,C) and the cell number significantly |  |  |  | 
COc1ccc(CCO[C@@H]2O[C@H](CO)[C@@H](OC(=O)/C=C/c3ccc(O)c(O)c3)[C@H](O[C@@H]3O[C@@H](C)[C@H](O)[C@@H](O)[C@H]3O)[C@H]2O)cc1OC [Compound 7, brachynoside] | 221 ± 24.5 | > 1000 | > 1000 | no inhibitory activity |  |  |  |  |  |  |  |  | almost inactive |  |  | 
O=C(O)C[C@H]1CCC(=O)[C@@H]1C/C=C\CCO[C@@H]1O[C@H](COC(=O)/C=C/c2ccc(O)c(O)c2)[C@@H](O)[C@H](O)[C@H]1O [Compound 4, 6′-O-caffeoyl-12-glucopyranosyloxyjasmonic acid] | 13 ± 1.3 | > 1000 | > 1000 | no inhibitory activity | 210 ± 5.1 |  | 199 ± 3.1 |  |  |  |  |  |  |  |  | 
CC1=CC(=O)CC(C)(C)[C@H]1CC[C@@H](C)O[C@@H]1O[C@H](CO)[C@@H](O)[C@H](O)[C@H]1O [Compound 3, byzantionoside B] | 284 ± 13.2 | > 1000 | > 1000 | no inhibitory activity | 94.7 ± 1.3 | 44 | 118 ± 3.3 | 48 | 50 | 40 |  |  | almost inactive |  |  | 
CC1=C(CO)[C@@H]2CC(=O)c3cc(C[C@@H](C)O)c(O[C@@H]4O[C@@H](CO)C(O)[C@H](O)[C@@H]4O[C@@H]4O[C@H](CO)[C@@H](O)[C@H](O)[C@@H]4O)c(O)c3[C@@]2(C)CC1 (stereo partly drawn) [Compound 1, (5R,10S,16R)-11,16,19-trihydroxy-12-O-β-D-glucopyranosyl-(1→2)-β-D-glucopyranosyl-17(15→16),18(4→3)-diabeo-3,8,11,13-abietatetraene-7-one] |  |  |  |  | 128 ± 2.2 |  | 122 ± 1.2 |  |  |  |  |  |  | 18.5 ± 0.6 | 191 ± 10.2 | > 1000
CC1=C(C(=O)O)C2CC(=O)c3cc(CC(C)O)c(OC4OC(CO)C(O)C(O)C4OC4OC(CO)C(O)C(O)C4O)c(O)c3C2(C)CC1 [Compound 2, (5R,10S,16R)-11,16-dihydroxy-12-O-β-D-glucopyranosyl-(1→2)-β-D-glucopyranosyl-17(15→16),18(4→3)-diabeo-4-carboxy-3,8,11,13-abietatetraene-7-one] |  |  |  |  |  |  |  |  |  |  |  |  |  | 64.6 ± 7.1 | 139 ± 7.2 | > 1000
